PubChem BioAssay (NCI)
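Grown in 96-well plates, cells were treated for 48 hours with each compound at five concentrations. Insufficient inhibition: endpoint recorded as highest concentration tested. At the GI50, growth is halved. TGI marks complete inhibition of growth.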

Columns and labels:
Test in all cases: NCI-60 cell line screen, 48 h
786-0 renal = system: 786-0 renal
A498 renal = system: A498 renal
A549 NSCLC = system: A549 NSCLC
ACHN renal = system: ACHN renal
BT-549 breast = system: BT-549 breast
CAKI-1 renal = system: CAKI-1 renal
CCRF-CEM leukemia = system: CCRF-CEM leukemia
COLO 205 colon = system: COLO 205 colon
DU-145 prostate = system: DU-145 prostate
EKVX NSCLC = system: EKVX NSCLC
HCC-2998 colon = system: HCC-2998 colon
HCT-116 colon = system: HCT-116 colon
HCT-15 colon = system: HCT-15 colon
HL-60(TB) leukemia = system: HL-60(TB) leukemia
HOP-62 NSCLC = system: HOP-62 NSCLC
HOP-92 NSCLC = system: HOP-92 NSCLC
HS 578T breast = system: HS 578T breast
HT29 colon = system: HT29 colon
IGROV1 ovarian = system: IGROV1 ovarian
K-562 leukemia = system: K-562 leukemia
KM12 colon = system: KM12 colon
LOX IMVI melanoma = system: LOX IMVI melanoma
M14 melanoma = system: M14 melanoma
MALME-3M melanoma = system: MALME-3M melanoma
MCF7 breast = system: MCF7 breast
MDA-MB-231 breast = system: MDA-MB-231 breast
MDA-MB-435 = system: MDA-MB-435
MOLT-4 leukemia = system: MOLT-4 leukemia
NCI-H226 lung = system: NCI-H226 lung
NCI-H23 lung = system: NCI-H23 lung
NCI-H460 lung = system: NCI-H460 lung
NCI-H522 lung = system: NCI-H522 lung
NCI/ADR-RES ovarian = system: NCI/ADR-RES ovarian
OVCAR-4 ovarian = system: OVCAR-4 ovarian
OVCAR-5 ovarian = system: OVCAR-5 ovarian
OVCAR-8 ovarian = system: OVCAR-8 ovarian
PC-3 prostate = system: PC-3 prostate
RPMI-8226 leukemia = system: RPMI-8226 leukemia
RXF 393 renal = system: RXF 393 renal
SF-268 CNS = system: SF-268 CNS
SF-295 CNS = system: SF-295 CNS
SF-539 CNS = system: SF-539 CNS
SK-MEL-2 melanoma = system: SK-MEL-2 melanoma
SK-MEL-28 melanoma = system: SK-MEL-28 melanoma
SK-MEL-5 melanoma = system: SK-MEL-5 melanoma
SK-OV-3 ovarian = system: SK-OV-3 ovarian
SN12C renal = system: SN12C renal
SNB-19 CNS = system: SNB-19 CNS
SNB-75 CNS = system: SNB-75 CNS
SR leukemia = system: SR leukemia
SW-620 colon = system: SW-620 colon
T-47D breast = system: T-47D breast
TK-10 renal = system: TK-10 renal
U251 CNS = system: U251 CNS
UACC-257 melanoma = system: UACC-257 melanoma
UACC-62 melanoma = system: UACC-62 melanoma
UO-31 renal = system: UO-31 renal

Compound: NC(=S)n1c(=O)n(-c2cccc(C(F)(F)F)c2)c(=O)c2cc(-c3ccc(F)cc3F)ccc21
- GI50 (786-0 renal): 2000 nM
- TGI (786-0 renal): 4390 nM
- GI50 (A498 renal): 341 nM
- TGI (A498 renal): 1220 nM
- GI50 (A549 NSCLC): 2730 nM
- TGI (A549 NSCLC): 11300 nM
- GI50 (ACHN renal): 2270 nM
- TGI (ACHN renal): 10500 nM
- GI50 (BT-549 breast): 1180 nM
- TGI (BT-549 breast): 2620 nM
- GI50 (CAKI-1 renal): 1610 nM
- TGI (CAKI-1 renal): 5860 nM
- GI50 (CCRF-CEM leukemia): 2270 nM
- TGI (CCRF-CEM leukemia): 11500 nM
- GI50 (COLO 205 colon): 1760 nM
- TGI (COLO 205 colon): 3360 nM
- GI50 (DU-145 prostate): 2740 nM
- TGI (DU-145 prostate): 13700 nM
- GI50 (EKVX NSCLC): 2390 nM
- TGI (EKVX NSCLC): 7950 nM
- GI50 (HCC-2998 colon): 2960 nM
- TGI (HCC-2998 colon): 9270 nM
- GI50 (HCT-116 colon): 953 nM
- TGI (HCT-116 colon): 2300 nM
- GI50 (HCT-15 colon): 769 nM
- TGI (HCT-15 colon): 2690 nM
- GI50 (HL-60(TB) leukemia): 1600 nM
- TGI (HL-60(TB) leukemia): 7260 nM
- GI50 (HOP-62 NSCLC): 1830 nM
- TGI (HOP-62 NSCLC): 4440 nM
- GI50 (HOP-92 NSCLC): 191 nM
- TGI (HOP-92 NSCLC): 741 nM
- GI50 (HS 578T breast): 1110 nM
- TGI (HS 578T breast): 4450 nM
- GI50 (HT29 colon): 3340 nM
- TGI (HT29 colon): 11900 nM
- GI50 (IGROV1 ovarian): 1990 nM
- TGI (IGROV1 ovarian): 13000 nM
- GI50 (K-562 leukemia): 725 nM
- TGI (K-562 leukemia): 14100 nM
- GI50 (KM12 colon): 2260 nM
- TGI (KM12 colon): 6210 nM
- GI50 (LOX IMVI melanoma): 1540 nM
- TGI (LOX IMVI melanoma): 3170 nM
- GI50 (M14 melanoma): 1600 nM
- TGI (M14 melanoma): 4230 nM
- GI50 (MALME-3M melanoma): 1510 nM
- TGI (MALME-3M melanoma): 4950 nM
- GI50 (MCF7 breast): 1700 nM
- TGI (MCF7 breast): 8180 nM
- GI50 (MDA-MB-231 breast): 1820 nM
- TGI (MDA-MB-231 breast): 5950 nM
- GI50 (MDA-MB-435): 1560 nM
- TGI (MDA-MB-435): 5460 nM
- GI50 (MOLT-4 leukemia): 1660 nM
- TGI (MOLT-4 leukemia): 4840 nM
- GI50 (NCI-H226 lung): 1420 nM
- TGI (NCI-H226 lung): 3890 nM
- GI50 (NCI-H23 lung): 1180 nM
- TGI (NCI-H23 lung): 5100 nM
- GI50 (NCI-H460 lung): 763 nM
- TGI (NCI-H460 lung): 5410 nM
- GI50 (NCI-H522 lung): 428 nM
- TGI (NCI-H522 lung): 2870 nM
- GI50 (NCI/ADR-RES ovarian): 1970 nM
- TGI (NCI/ADR-RES ovarian): 9410 nM
- GI50 (OVCAR-4 ovarian): 2390 nM
- TGI (OVCAR-4 ovarian): 22500 nM
- GI50 (OVCAR-5 ovarian): 3540 nM
- TGI (OVCAR-5 ovarian): 17500 nM
- GI50 (OVCAR-8 ovarian): 1290 nM
- TGI (OVCAR-8 ovarian): 6480 nM
- GI50 (PC-3 prostate): 1050 nM
- TGI (PC-3 prostate): 4110 nM
- GI50 (RPMI-8226 leukemia): 575 nM
- TGI (RPMI-8226 leukemia): 3110 nM
- GI50 (RXF 393 renal): 1220 nM
- TGI (RXF 393 renal): 3090 nM
- GI50 (SF-268 CNS): 2000 nM
- TGI (SF-268 CNS): 11300 nM
- GI50 (SF-295 CNS): 1750 nM
- TGI (SF-295 CNS): 3620 nM
- GI50 (SF-539 CNS): 1920 nM
- TGI (SF-539 CNS): 8790 nM
- GI50 (SK-MEL-2 melanoma): 590 nM
- TGI (SK-MEL-2 melanoma): 2350 nM
- GI50 (SK-MEL-28 melanoma): 1430 nM
- TGI (SK-MEL-28 melanoma): 6240 nM
- GI50 (SK-MEL-5 melanoma): 333 nM
- TGI (SK-MEL-5 melanoma): 1140 nM
- GI50 (SK-OV-3 ovarian): 1210 nM
- TGI (SK-OV-3 ovarian): 3600 nM
- GI50 (SN12C renal): 1260 nM
- TGI (SN12C renal): 6300 nM
- GI50 (SNB-19 CNS): 1290 nM
- TGI (SNB-19 CNS): 22900 nM
- GI50 (SNB-75 CNS): 1500 nM
- TGI (SNB-75 CNS): 5170 nM
- GI50 (SR leukemia): 984 nM
- TGI (SR leukemia): 5150 nM
- GI50 (SW-620 colon): 1600 nM
- TGI (SW-620 colon): 4200 nM
- GI50 (T-47D breast): 1540 nM
- TGI (T-47D breast): 6090 nM
- GI50 (TK-10 renal): 4050 nM
- TGI (TK-10 renal): 8470 nM
- GI50 (U251 CNS): 1740 nM
- TGI (U251 CNS): 9310 nM
- GI50 (UACC-257 melanoma): 1070 nM
- TGI (UACC-257 melanoma): 4000 nM
- GI50 (UACC-62 melanoma): 379 nM
- TGI (UACC-62 melanoma): 1610 nM
- GI50 (UO-31 renal): 2300 nM
- TGI (UO-31 renal): 8580 nM
